This is an account of results in paper PMC6843786, “Temporin-SHa and Its Analogs as Potential Candidates for the Treatment of Helicobacter pylori” (Biomolecules, 2019).

Structures are written as SMILES.

Data set [1] has as its system human gastric explants. In words: Ex vivo toxicity assay, histological examination (H&E) of human gastric explants. Format: cell-based. The conditions noted are these: 2, 4 or 8 h; peptides 100 µM, CTAB 300 µM; H&E staining. The protocol:
To further evaluate the innocuity of the peptides, ex vivo experiments were performed using human explants as previously described. Briefly, human gastric tissue samples were obtained from patients undergoing surgery at the Hospital Laveran (Marseille, France), unit of gastrointestinal surgery according to a collaborative clinical transfer project. The procedures were approved by the French ethic committee (CODECOH n° DC-2019-3402). All patients agreed for the use of their tissues for research purposes. Samples were taken from healthy patients during sleeve gastrectomy from macroscopically unaffected area as identified by the surgeons. After resection, the specimens were placed in ice-cold oxygenated sterile DMEM solution containing 1% streptomycin/penicillin solution and 50 μg/mL gentamycin and were directly transferred to the laboratory within 15 min on ice. Gastric tissues were extensively washed and maintained in ice-cold culture media containing 1% streptomycin/penicillin solution and 50 μg/mL gentamycin. […] Quantification of the release of LDH was also used in addition to microscopic observations to evaluate the impact of peptides on human gastric explants. […] The LDH activity was measured using previously described protocol with minor changes. […] Increase in OD339nm was then measured at 30 °C after 0, 1, 5, and 10 min using microplate reader (Synergy Mx, Biotek). […]

For data set [2], the system named is human gastric explants. In words: Ex vivo toxicity assay, LDH release from human gastric explants. Format: cell-based. Particulars: peptides 100 µM, CTAB 300 µM, % of total release. The protocol: To further evaluate the innocuity of the peptides, ex vivo experiments were performed using human explants as previously described. Briefly, human gastric tissue samples were obtained from patients undergoing surgery at the Hospital Laveran (Marseille, France), unit of gastrointestinal surgery according to a collaborative clinical transfer project. The procedures were approved by the French ethic committee (CODECOH n° DC-2019-3402). All patients agreed for the use of their tissues for research purposes. Samples were taken from healthy patients during sleeve gastrectomy from macroscopically unaffected area as identified by the surgeons. After resection, the specimens were placed in ice-cold oxygenated sterile DMEM solution containing 1% streptomycin/penicillin solution and 50 μg/mL gentamycin and were directly transferred to the laboratory within 15 min on ice. Gastric tissues were extensively washed and maintained in ice-cold culture media containing 1% streptomycin/penicillin solution and 50 μg/mL gentamycin. Tissues were cleaned from vascular vessels and conjunctive tissue using forceps under binocular microscope. Gastric explants (wet weight of 20–30 mg) were then isolated from the cleaned resections using surgical punch (diameter of 0.5 cm^2). […] Finally, the explants were washed three times with culture media without antibiotics and transferred into 24-well plates before being incubated in RPMI media without fetal bovine serum, antibiotics and phenol red at 37 °C in the 5% CO2 incubator with 100 µM of peptides for 2, 4 or 8 h. Phenol red was omitted from the culture media since it interferes with the lactate dehydrogenase (LDH) assay. The detergent cetyl-trimethylammonium bromide (CTAB) at 300 µM was used as positive control of tissue damages. At the end of the incubation, the explants were collected and washed three times with PBS^++ and were fixed overnight at 4 °C with PFA diluted at 4% in PBS. After that, gastric explants were washed twice with PBS and were included in an inclusion medium (TFM-EMS), in transverse position to allow cutting in the crypt-villosity axis using cryostat (Leica CM3050) (Leica Microsystems, Nanterre, France). Four sections of 5 µm thickness were obtained per explant, each section being separated by 100 µm from the next in order to cover all the tissue. Explants were then stained using hematoxylin and eosin (H&E) staining protocol. Briefly, samples were incubated for 8 min in hematoxylin (Sigma-Aldrich) and then allowed to stain by incubation with water for 2 min. Then explants were incubated for 1 min in eosin (Sigma-Aldrich) and then in water for 1 min. This was followed by incubation of explants with ethanol at concentration of 70% then 95% and finally 100% for 2 min each. After blotting excess ethanol, gastric explants were incubated for 15 min with xylene and mounted with coverslip using Eukitt mounting media (EMS, Hatfield, PA, USA). Finally, explants were left overnight to dry before examination of tissue organization under the microscope (Leitz DMRB microscope (Leïca), equipped with Leïca DFC 450C camera). Quantification of the release of LDH was also used in addition to microscopic observations to evaluate the impact of peptides on human gastric explants. Briefly, after 2, 4 or 8 h of incubation of the explants with the peptides, the supernatants of the wells were collected and stored at -80 °C before the LDH assay. The LDH activity was measured using previously described protocol with minor changes. Briefly, 50 µL of supernatants obtained from explants were mixed with 200 µL of Tris-Lactate buffer (containing Tris HCl at 86 mM, L-Lactate at 56 mM and KCl at 172 mM, pH 9.3, all from Sigma-Aldrich) and 20 µL of NAD (at 172 mM, Sigma-Aldrich) into well of 96-wells plates. Increase in OD339nm was then measured at 30 °C after 0, 1, 5, and 10 min using microplate reader (Synergy Mx, Biotek). […]

Turning to `CCCCCCCCCCCCCCCC[N+](C)(C)C` [CTAB, cetyl-trimethylammonium bromide, reference compound], the “tissue organization by microscopic observation” value in the data set on human gastric explants [1] is reported as “major alterations of the tissue architecture”. Further, the values for the LDH release with human gastric explants [2] (2 h), with human gastric explants [2] (4 h) and with human gastric explants [2] (8 h) were 81.1%, 90.3% and 100%, respectively.
